This note sets out measurements from US12172957B2, “Attractant composition for the species Delottococcus aberiae, methods for the monitoring, detection and/or control of the pest” (Ecologia y Proteccion Agricola, S.L., priority 2018, dated 2024).

“And” between values parts separate entries of the source, which are not always exact repeats. Equal entries are not always repeated.

The test system of series [1] is male Delottococcus aberiae. In words: Field tests on the attraction response: baited adhesive traps in a citrus plot. In kind it is in vivo. As to the method:
The response in male Delottococcus aberiae to (4,5,5-trimethyl-3-methylenecyclopent-1-en-1-yl)methyl acetate was evaluated in two field tests performed in a citrus var. Marisol plot, located in Sagunto (Valencia), during the months of May-June 2018. In a first test, 3 blocks of 2 devices were installed, said devices being: (A) a device with carrier, without attractant substance and with a trap consisting of a white sheet with adhesive, (B) a device with carrier with bait containing 500 μg of (4,5,5-trimethyl-3-methylenecyclopent-1-en-1-yl)methyl acetate and a trap consisting of a white sheet with adhesive (95×150 mm) (in each block, the devices were located at a distance of 20 m from one another, whereas the distance between blocks was at least 30 m. The carriers loaded with (4,5,5-trimethyl-3-methylenecyclopent-1-en-1-yl)methyl acetate were septum-type carriers and were inserted in the centre of the trap.
The captures obtained in each of the traps were checked each week and the captured individuals were taken to the laboratory to be identified and counted. Traps in the same block were rotated each week.
The number of males captured per trap and day was compared by means of an analysis of variance (ANOVA; LSD test for comparison of the means, P<0.05), subject to transformation (In(x+1)) of the data to homogenise the variance.
In a second test, this was performed in the same way as test 1, but device B included bait containing 100 μg of (4,5,5-trimethyl-3-methylenecyclopent-1-en-1-yl)methyl acetate.

Series [2] has as its system male Delottococcus aberiae. In words: Choice test in glass Petri dish: response of males to the compound vs. pentane control, laboratory conditions. In kind it is in vivo. The note with it: 10 μl on 1 cm^2 filter paper vs. pentane negative control; 10 min; χ2 test P<0.05; FIG. 2. As to the method: The response of male Delottococcus aberiae to (4,5,5-trimethyl-3-methylenecyclopent-1-en-1-yl)methyl acetate was evaluated in the Centro de Ecologia Quimica Agricola (UPV, Valencia) by means of a test on the activity in a glass Petri dish. The tests were performed with light and under the same breeding conditions, at 23±2° C. and 60-70% relative humidity.
For these tests, males from breeding were also used, separated on Petri dishes right when the cottony cocoon begins to form. After pupating and finally emerging from the cocoon, the insects are observed under a binocular scope to confirm their state before being selected for the test.
The method used is described below: for each test, there were placed at opposite ends of the Petri dish a sample of (4,5,5-trimethyl-3-methylenecyclopent-1-en-1-yl)methyl acetate and a negative control (solvent pentane without activity), arranged on 1 cm^2 filter paper in an amount of 10 μl. Immediately, groups of males are carefully deposited on the test plate with the aid of a very fine brush. Therefore, the behaviour of the individuals with respect to the sources of stimulation is recorded for 10 min. Once the test has ended, the insects are discarded, such that each insect is exposed to olfactory stimuli only once. The obtained data were analysed by means of a Chi-squared test (χ2 test, P<0.05).

The nature of series [3]: Analysis of the attractant content of the septum carriers after 20 days in the field (emission). In kind it is physicochemical. As to the method:
Therefore, the mean emission for those 20 days is 9.45±2.13 μg/day. […] Therefore, the mean emission for those 20 days is 0.55±0.42 μg/day.

The mark [4] stands for this setting: first field test, tested load 300 μg per septa.

Consider `C=C1C=C(COC(C)=O)C(C)(C)C1C` (racemic) [Pheromone, (4,5,5-trimethyl-3-methylenecyclopent-1-en-1-yl)methyl acetate], for which, in series [1] (first field test, Table 1, bait 500 μg (300 μg per septa), single traps), the “Male captures per trap and day” value is 61.0 and 52.7 and 58.0. Also, the “Average field captures per trap and day” value in series [1] (first field test, bait 500 μg (300 μg elsewhere in the source), controls 0.11, P<0.001) is recorded as 57.22; in series [1] (second field test, bait 100 μg, controls 0.06, P<0.036) it was 9.14. Further, the “Attraction power of baited devices vs. traps without attractant” value in series [1] (first field test, septum bait, white adhesive trap, ANOVA, LSD P<0.05, FIG. 3) is given as “significantly higher attraction power”. Further, the “Response of male Delottococcus aberiae in the test of choice” value in series [2] is “significant attractant response”. Besides, the “Final content of the substance after 20 days” value amounted to 109 µg in series [3] (setting [4]) and 91 µg in series [3] (second field test, bait 100 μg). The “Mean emission for those 20 days” value in series [3] (setting [4]) was 9.45 ± 2.13 µg/day; in series [3] (second field test, bait 100 μg), 0.55 ± 0.42 µg/day.
